Laboratory results taken from patent publication US9463213B2, “Use of degarelix in the treatment of endometriosis and related diseases” (priority 2012, dated 2016).

Assays:
[1] = test system: women with recurrent endometriosis after surgery; assay: Example 1: clinical comparison of single-dose degarelix with monthly leuprolide acetate in recurrent endometriosis; format: in vivo; conditions: for Disappearance of pain: degarelix acetate 80 mg single s.c. injection vs leuprolide acetate 3.75 mg s.c. monthly, 15 patients per group; for Disappearance of symptoms at the end of treatment / Recurrence six months after the end of treatment / CA-125 after 2 months / CA-125 at the end of treatment: degarelix acetate 80 mg single s.c. vs leuprolide acetate 3.75 mg s.c. monthly; for CA-125 after 2 months / CA-125 at the end of treatment: plasma
Method: In this experiment the use of degarelix was studied, administered in a dose of 80 mg in a single infusion, with an effect which lasted for at least 4 months (period of amenorrhea and hypoestrogenism), comparing this with the effect of treatment with leuprolide acetate GnRH-agonist administered in a dose of 3.75 mg per month for at least 6 months in women with recurrent endometriosis after surgery and post-surgery treatment with estro-progestins. 30 women divided into two groups of 15 patients each, with recurrent endometriosis after previous surgery for endometriotic cysts, in whom new ovarian cysts, pelvic pain and a rise in plasma CA125 values occurred, were included in the study. One group of patients was treated with 80 mg degarelix acetate in a single subcutaneous injection (Firmagon 80 mg, company Ferring) on the first day of the menstrual cycle, while the other group was treated with leuprolide acetate (Enantone 3.75, Takeda) in a dose of 3.75 mg subcutaneously every month for four months. Both the groups were monitored for FSH, LH, estradiol, androstenedione, dehydroandrostenedione (DEA) and CA125, with plasma doses every fifteen days starting from the day following administration of the drug. Pelvic pain levels experienced by the patients during treatment and during the six months following suspension of the treatment were also evaluated using a “Visual Analogue Scale” (VAS) in which the patient expressed the level of pain experienced on a 10 cm scale.

healthy women volunteers = conditions: injection of 2.5 mg; cited from earlier work
[2] = test system: patients suffering from endometriosis with bilateral ovarian cysts; assay: Example 2: degarelix before assisted reproduction in patients with bilateral endometriotic ovarian cysts; format: in vivo
Method: In this experiment, 12 patients suffering from endometriosis with the presence of bilateral ovarian cysts who wished to receive a cycle of assisted reproduction underwent, prior to undergoing controlled ovarian hyperstimulation, treatment with 80 mg degarelix acetate in a single administration 4 months before the assisted reproduction cycle, in order to evaluate the efficacy of this treatment on the reduction and/or disappearance of the ovarian cysts without performing surgery. 12 patients with bilateral endometriotic cysts (cysts larger than 3 cm) and high plasma CA125 (over 60 IU/ml) were selected. 80 mg degarelix acetate (Firmagon 80 mg) was injected into the patients on the first day of the cycle and the patients were then monitored for FSH, LH and estradiol values every 20 days, with an echography check to evaluate the dimensions of the cysts.

[3] = test system: patients with severe endometriosis; conditions: 80 mg monthly for three months; cited from earlier work
[4] = 80 mg single dose vs leuprolide acetate, P<0.01

Row | Molecule | Disappearance of pain [1] | Disappearance of symptoms at the end of treatment [1] [%] | Recurrence six months after the end of treatment [1] [%] | CA-125 after 2 months [1] | CA-125 at the end of treatment [1] | Duration of effect (period of amenorrhea and hypoestrogenism) ([1]; 80 mg in a single infusion) | Control of painful symptoms (VAS) compared with GnRH agonist (FIG. 5) ([1]; 80 mg single dose vs leuprolide acetate) | Estradiol and androgen levels compared with GnRH agonist (FIGS. 2-4) [1, 4] | Suppression of LH and FSH compared with GnRH agonist (FIG. 1) [1, 4] | Duration of stable suppression of FSH, LH, estradiol and androgen levels ([1]; single administration of 80 mg) [months] | Effect on LH and FSH release (healthy women volunteers) | Time required for LH and FSH to return to base levels (healthy women volunteers) | Volume of the endometriotic cysts ([2]; 80 mg single administration, 3 months after treatment, echography) | Levels of FSH, LH and estradiol 3 months after treatment (FIG. 6) ([2]; 80 mg single administration, 12 patients) | Patients with complete disappearance of endometriotic cysts ([2]; 80 mg single administration, of 12 patients) | Pregnancy achieved ([2]; after 80 mg single administration and assisted reproduction cycle, of 12 patients) [cases] | Recurrence of endometriotic cysts during ovarian stimulation with oocyte sampling ([2]; after 80 mg single administration, all patients) | Effect on pain and endometriosis recurrence [3]
1 | CCNC(=O)[C@@H]1CCCN1C(=O)[C@H](CCCNC(=N)N)NC(=O)[C@H](CC(C)C)NC(=O)[C@@H](CC(C)C)NC(=O)[C@H](Cc1ccc(O)cc1)NC(=O)[C@H](CO)NC(=O)[C@H](Cc1c[nH]c2ccccc12)NC(=O)[C@H](Cc1c[nH]cn1)NC(=O)[C@@H]1CCC(=O)N1 [Leuprolide acetate, leuprolide acetate] | 3.8 ± 0.8 | 60.0 | 33.3 | 52.6 ± 31.5 | 34.0 ± 12.7 | – | – | – | – | – | – | – | – | – | – | – | – | –
2 | degarelix acetate | 1.4 ± 0.3 | 93.3 | 6.6 | 32.4 ± 21.4 | 12.6 ± 10.1 | at least 4 months | better control of painful symptoms | lower levels of estradiol | More rapid and stable suppression of LH and FSH | 4 | immediate suppression of LH and FSH release | approximately 7 days | decreased significantly | low levels | at least 4 patients | 5 | without showing any recurrence of endometriotic cysts | reduction of pain and endometriosis recurrence
